Measured values reported in article PMC11367503, “Exploring galectin interactions with human milk oligosaccharides and blood group antigens identifies BGA6 as a functional galectin-4 ligand” (The Journal of Biological Chemistry, 2024).
Where “and” joins values, the source holds several entries; their conditions need not be identical. Equal entries are not always repeated.

Columns and labels:
Format in all cases: binding
human Gal-4 [1] = molecular target: T1, human Gal-4 (Homo sapiens, UniProt P56470); assay: Competitive solid-phase assay (SPA), immobilized asialofetuin, Gal-4; conditions: mean ± S.D., three independent experiments
T1 construct: His6-SUMO (N, cleaved yes); made in house; host or cells: Escherichia coli BL21 (DE3)
T1 sequence (P56470 1-323): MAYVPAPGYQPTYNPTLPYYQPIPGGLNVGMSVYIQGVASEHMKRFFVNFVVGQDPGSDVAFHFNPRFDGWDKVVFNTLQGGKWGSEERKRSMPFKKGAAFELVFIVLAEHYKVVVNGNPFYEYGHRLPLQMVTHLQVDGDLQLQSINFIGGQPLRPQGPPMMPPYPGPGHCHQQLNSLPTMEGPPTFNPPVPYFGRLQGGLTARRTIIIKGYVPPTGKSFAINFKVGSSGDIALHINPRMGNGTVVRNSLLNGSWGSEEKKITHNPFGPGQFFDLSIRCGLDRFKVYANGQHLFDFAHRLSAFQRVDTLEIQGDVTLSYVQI
Experimental: (§1) The assay was adapted from Rapoport et al. (2010) ([88]). Briefly, 96-well plates (flat-bottom) were coated with 10 μg/ml asialofetuin (ASF, Sigma-Aldrich) in sodium carbonate buffer (pH 9.6) and incubated overnight at 4 °C. Then, wells were washed three times with 100 μl/well PBS-Tween 0.05% (w/v) and blocked with 100 μl/well PBS-bovine serum albumin (BSA) 2% (1 h, room temperature (RT)) in a humid chamber. Meanwhile, equal volumes of human recombinant Gal-1, -3, -4, -7, and -12 (20–40 μg/ml) in PBS-BSA 0.3% buffer were preincubated with the corresponding inhibitors in serial dilutions (2 h, 37 °C). After washing, galectins were detected using the corresponding antigalectin primary detection antibodies in PBS-BSA 0.3% w/v (1 h at RT). For Gal-1, wells were incubated with an in-house purified 100 ng/ml biotinylated rabbit anti–human Gal-1 polyclonal immunoglobulin G. For Gal-3, -4, and -7, a 1:500 dilution of the corresponding biotinylated anti-human galectin antibodies was used (BAF1154, BAF1227, and MAB13391, respectively, R&D Systems). For Gal-12, a rabbit anti-human Gal-12 polyclonal antibody (Santa Cruz Biotechnology, 1:700) was used. For Gal-1, -3, -4, and -7, plates were rinsed three times before adding 0.33 μg/ml horseradish peroxidase (HRP)-labeled streptavidin (Sigma-Aldrich) for 30 min. For Gal-12, an anti-rabbit secondary antibody conjugate coupled to HRP was incubated for 1 h at RT in PBS-BSA 0.3% w/v. After washing, 100 μl TMB solution (0.1 mg/ml tetramethylbenzidine and 0.06% H2O2 in citrate-phosphate buffer, pH 5.0) was added to plates. The reaction was stopped by adding a 2N H2SO4 solution. Absorbance was determined at 450 nm in a Multiskan MS microplate reader (Thermo Fisher Scientific).

human Gal-7 [2] = molecular target: T2, human Gal-7 (Homo sapiens, UniProt P47929); assay: Competitive solid-phase assay (SPA), immobilized asialofetuin, Gal-7; conditions: competitive SPA, immobilized asialofetuin; mean ± S.D., three independent experiments
T2 construct: made in house; host or cells: Escherichia coli BL21 (DE3)
T2 sequence (P47929 whole entry): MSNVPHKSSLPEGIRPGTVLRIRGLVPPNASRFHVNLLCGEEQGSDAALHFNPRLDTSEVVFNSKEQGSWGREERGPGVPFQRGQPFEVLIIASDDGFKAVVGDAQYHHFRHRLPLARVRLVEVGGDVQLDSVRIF
Experimental: as §1

human Gal-12 = molecular target: T3, human Gal-12 (Homo sapiens, UniProt Q96DT0); assay: Competitive solid-phase assay (SPA), immobilized asialofetuin, Gal-12; conditions: mean ± S.D., three independent experiments
T3 construct: To obtain full-length human Gal-12, we adapted our previously optimized procedure for murine Gal-12; made in house; host or cells: Escherichia coli Rosetta 2 (DE3)
T3 sequence (Q96DT0 1-336): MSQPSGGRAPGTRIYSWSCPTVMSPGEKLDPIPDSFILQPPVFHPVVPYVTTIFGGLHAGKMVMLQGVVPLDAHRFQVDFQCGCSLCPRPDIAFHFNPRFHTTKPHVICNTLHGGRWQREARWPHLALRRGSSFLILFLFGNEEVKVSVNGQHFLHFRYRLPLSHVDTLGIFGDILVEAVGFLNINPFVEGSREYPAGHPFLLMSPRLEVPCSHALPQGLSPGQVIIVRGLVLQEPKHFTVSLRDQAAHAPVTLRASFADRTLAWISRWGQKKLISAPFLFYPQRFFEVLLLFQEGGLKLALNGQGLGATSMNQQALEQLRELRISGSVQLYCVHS
Experimental: as §1

human Gal-1 = molecular target: T4, human Gal-1 (Homo sapiens, UniProt P09382); assay: Competitive solid-phase assay (SPA), immobilized asialofetuin, Gal-1; conditions: mean ± S.D., three independent experiments
T4 construct: made in house; host or cells: Escherichia coli BL21 (DE3)
T4 sequence (P09382 whole entry): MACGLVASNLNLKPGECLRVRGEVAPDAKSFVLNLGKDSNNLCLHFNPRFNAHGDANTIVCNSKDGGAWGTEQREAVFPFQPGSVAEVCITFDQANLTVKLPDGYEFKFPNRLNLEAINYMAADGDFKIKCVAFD
Experimental: as §1

human Gal-3 = molecular target: T5, human Gal-3 (Homo sapiens, UniProt P17931); assay: Competitive solid-phase assay (SPA), immobilized asialofetuin, Gal-3; conditions: mean ± S.D., three independent experiments
T5 construct: made in house; host or cells: Escherichia coli BL21 (DE3)
T5 sequence (P17931 whole entry): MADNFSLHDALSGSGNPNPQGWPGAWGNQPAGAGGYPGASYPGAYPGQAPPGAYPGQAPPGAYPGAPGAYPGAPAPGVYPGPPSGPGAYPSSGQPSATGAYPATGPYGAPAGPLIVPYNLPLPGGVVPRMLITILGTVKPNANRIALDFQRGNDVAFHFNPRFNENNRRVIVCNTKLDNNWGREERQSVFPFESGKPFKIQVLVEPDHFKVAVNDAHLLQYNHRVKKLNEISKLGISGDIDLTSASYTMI
Experimental: as §1

human Gal-4 [3] = molecular target: T1, human Gal-4; assay: Isothermal titration calorimetry (ITC), Gal-4; conditions: Gal-4, PBS, 298 K; for Kd: n fixed to 1.00
Experimental: (§2) All ITC experiments were performed by using a NanoITC (TA Instruments) under previously optimized conditions ([89]). A typical titration involved 20 injections at 300 s intervals of 2.5 μl aliquots of a 2.5 to 10 mM ligand solution into the sample cell (volume 200 μl) containing the different galectins (30–100 μM). The solutions were prepared by dissolving the glycan ligands in degassed PBS buffer at 298 K. The titration cell was continuously stirred at 300 rev/min. The heats of dilution of the ligands in the buffer were subtracted from the titration data. […] Fitting was performed using the Nano Analyze software (TA Instruments; https://www.tainstruments.com/itcrun-dscrun-nanoanalyze-software/) to determine association constants (Ka) and the enthalpy change (ΔH). No reliable fit of the thermodynamic parameters could be obtained for binding affinities above 80 μM.

human Gal-7 [4] = molecular target: T2, human Gal-7; assay: Isothermal titration calorimetry (ITC), Gal-7; conditions: Gal-7, PBS, 298 K, n fixed to 1.00
Experimental: as §2

| SMILES | IC50 (human Gal-4 [1]) | IC50 (human Gal-7 [2]) [mM] | IC50 (human Gal-12) [mM] | IC50 (human Gal-1) | IC50 (human Gal-3) [mM] | Kd (human Gal-4 [3]) [mM] | Kd (human Gal-7 [4]) [mM] | -TΔS (human Gal-4 [3]) [kcal/mol] | ΔH (human Gal-4 [3]) [kcal/mol] |
| --- | --- | --- | --- | --- | --- | --- | --- | --- | --- |
| CC(=O)NC1C(O)CC(OC2C(O)C(CO)OC(OC3C(CO)OC(O)C(O)C3O)C2O)(C(=O)O)OC1C(O)C(O)CO (stereo not drawn) [3’-SL, 3′-sialyllactose] |  | 1.7 ± 0.2 | 11.1 ± 1 | 2.2 ± 0.03 mM | 11 ± 0.9 |  | 0.097 ± 0.009 |  |  |
| CC(=O)NC1C(O)OC(CO)C(OC2OC(CO)C(O)C(OC3(C(=O)O)CC(O)C(NC(C)=O)C(C(O)C(O)CO)O3)C2O)C1O (stereo not drawn) [3’-SLacNAc, 3’-sialyl-N-acetyllactosamine] |  | 2.2 | 9.8 ± 1 | 2.2 ± 0.04 mM | 4.8 ± 0.3 |  |  |  |  |
| CC(=O)NC1C(OC2C(O)C(CO)OC(OC3C(O)C(CO)OC(O)C3NC(C)=O)C2OC2OC(C)C(O)C(O)C2O)OC(CO)C(O)C1O (stereo not drawn) [BGA1, blood group A antigen 1] | 0.2 ± 0.1 mM | 2.5 ± 0.8 | 30.3 ± 9 | 6.2 mM and 6.19 mM | 1.2 ± 0.5 |  |  |  |  |
| CC(=O)NC1C(O)OC(CO)C(OC2OC(CO)C(O)C(OC3OC(CO)C(O)C(O)C3NC(C)=O)C2OC2OC(C)C(O)C(O)C2O)C1O (stereo not drawn) [BGA2, blood group A antigen 2] | 0.2 mM and 0.24 mM | 2.2 ± 0.4 | 25.3 ± 12 | 6.3 mM and 6.32 mM | 1.9 ± 0.4 | 0.065 ± 0.005 | 0.103 ± 0.008 | 0.263 ± 0.048 | -5.98 ± 0.48 |
| CC(=O)NC1C(OC2C(O)C(CO)OC(OC3C(CO)OC(O)C(O)C3OC3OC(C)C(O)C(O)C3O)C2O)OC(CO)C(OC2OC(CO)C(O)C(O)C2O)C1OC1OC(C)C(O)C(O)C1O (stereo not drawn) [DFH, 3,3-difucosylhexaose (Lewis X hexaose)] | 13.8 ± 3 mM | 9.2 ± 0.2 | 5.6 ± 0.8 | 9.7 mM and 9.73 mM | 10.5 ± 0.7 |  |  |  |  |

More lines, now with the values ahead:

| IC50 (human Gal-4 [1]) | IC50 (human Gal-7 [2]) [mM] | IC50 (human Gal-12) [mM] | IC50 (human Gal-1) | IC50 (human Gal-3) [mM] | Kd (human Gal-4 [3]) [mM] | Kd (human Gal-7 [4]) [mM] | -TΔS (human Gal-4 [3]) [kcal/mol] | ΔH (human Gal-4 [3]) [kcal/mol] | SMILES |
| --- | --- | --- | --- | --- | --- | --- | --- | --- | --- |
| 23.1 mM | 3 ± 0.6 | 82.1 ± 0.8 |  |  |  |  |  |  | OC[C@H]1O[C@@H](O[C@H]2[C@H](O)[C@@H](O)C(O)O[C@@H]2CO)[C@H](O)[C@@H](O)[C@H]1O (mixture of isomers) [Lac, lactose] |
| 1.5 ± 0.6 mM | 8.3 ± 0.5 | 63.5 ± 0.8 | 1.2 mM and 1.23 mM | 4.2 ± 0.3 | 0.13 ± 0.009 |  |  |  | CC1OC(OC2C(OC3C(CO)OC(O)C(O)C3O)OC(CO)C(O)C2O)C(O)C(O)C1O (stereo not drawn) [2’-FL, 2′-fucosyllactose] |
|  | 9.5 ± 0.3 | 53.3 ± 2 |  |  |  |  |  |  | CC(=O)NC1C(O)CC(OCC2OC(OC3C(CO)OC(O)C(O)C3O)C(O)C(O)C2O)(C(=O)O)OC1C(O)C(O)CO (stereo not drawn) [6’-SL, 6′-sialyllactose] |
